What was measured:
rape = experiment: Test E rape; assay type: in vivo, Brassica napus; conditions: Postemergence
In short: (§1)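 Postemergence: spray at 1–4 leaf stage, soil 60:40 sandy loam:potting mix; solvent + surfactant formulation; greenhouse 21–28 d; visual injury vs untreated controls.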

blackgrass = experiment: Test E blackgrass; assay type: in vivo, Alopecurus myosuroides; conditions: Postemergence
Experimental: (§2) Compounds evaluated in this test were formulated in a non-phytotoxic solvent mixture which included a surfactant and applied to plants that were in the 1- to 4-leaf stage (postemergence application). A mixture of sandy loam soil and greenhouse potting mix in a 60:40 ratio was used for the postemergence test.
(§3) Plantings of these crops and weed species were adjusted to produce plants of appropriate size for the postemergence test. All plant species were grown using normal greenhouse practices. Crop and weed species include annual bluegrass (Poa annua), blackgrass (Alopecurus myosuroides), black nightshade (Solanum nigra), chickweed (Stellaria media), common poppy (Papaver rhoeas), deadnettle (Lamium amplexicaule), downy brome (Bromus tectorum), field violet (Viola arvensis), galium (Galium aparine), green foxtail (Setaria viridis), Italian ryegrass (Lolium multiflorum), jointed goatgrass (Aegilops cylindrica), kochia (Kochia scoparia), lambsquarters (Chenopodium album), littleseed canarygrass (Phalaris minor), rape (Brassica napus), redroot pigweed (Amaranthus retroflexus), Russian thistle (Salsola kali), scentless chamomile (Matricaria inodora), spring barley (Hordeum vulgare), sugar beet (Beta vulgaris), sunflower (Helianthus annuus), ivyleaf speedwell (Veronica hederaefolia), spring wheat (Triticum aestivum), winter wheat (Triticum aestivum), wild buckwheat (Polygonum convolvulus), wild mustard (Sinapis arvensis), wild oat (Avena fatua), windgrass (Apera spica-venti) and winter barley (Hordeum vulgare).
(§4) Treated plants and untreated controls were maintained in a greenhouse for approximately 21 to 28 days, after which all treated plants were compared to untreated controls and visually evaluated. […] A dash response (-) means no test result.

jointed goatgrass = experiment: Test E jointed goatgrass; assay type: in vivo, Aegilops cylindrica; conditions: Postemergence
In short: as §1

redroot pigweed = experiment: Test E redroot pigweed; assay type: in vivo, Amaranthus retroflexus; conditions: Preemergence
Russian thistle [1] = experiment: Test E Russian thistle; assay type: in vivo, Salsola kali; conditions: Preemergence
field violet [2] = experiment: Test E field violet; assay type: in vivo, Viola arvensis; conditions: Preemergence
galium [3] = experiment: Test E galium; assay type: in vivo, Galium aparine; conditions: Preemergence
ivyleaf speedwell = experiment: Test E postemergence ivyleaf speedwell; assay type: in vivo, Veronica hederaefolia
Experimental: as §2, §3, §4

annual bluegrass [4] = experiment: Test E annual bluegrass; assay type: in vivo, Poa annua; conditions: Preemergence
lambsquarters [5] = experiment: Test E lambsquarters; assay type: in vivo, Chenopodium album; conditions: Preemergence
field violet [6] = experiment: Test E field violet; assay type: in vivo, Viola arvensis; conditions: Postemergence
In short: as §1

Russian thistle [7] = experiment: Test E Russian thistle; assay type: in vivo, Salsola kali; conditions: Postemergence
Experimental: […] A mixture of sandy loam soil and greenhouse potting mix in a 60:40 ratio was used for the postemergence test.
as §3, §4

annual bluegrass [8] = experiment: Test E annual bluegrass; assay type: in vivo, Poa annua; conditions: Postemergence
In short: as §1

spring barley = experiment: Test E spring barley; assay type: in vivo, Hordeum vulgare; conditions: Postemergence
Experimental: as §2, §3, §4

spring wheat = experiment: Test E spring wheat; assay type: in vivo, Triticum aestivum; conditions: Preemergence
galium [9] = experiment: Test E galium; assay type: in vivo, Galium aparine; conditions: Postemergence
In short: as §1

Italian ryegrass = experiment: Test E Italian ryegrass; assay type: in vivo, Lolium multiflorum; conditions: Postemergence
In short: as §1

windgrass = experiment: Test E windgrass; assay type: in vivo, Apera spica-venti; conditions: Preemergence
deadnettle = experiment: Test E deadnettle; assay type: in vivo, Lamium amplexicaule; conditions: Postemergence
Experimental: as §2, §3, §4

wild buckwheat [10] = experiment: Test E wild buckwheat; assay type: in vivo, Polygonum convolvulus; conditions: Preemergence
wild buckwheat [11] = experiment: Test E wild buckwheat; assay type: in vivo, Polygonum convolvulus; conditions: Postemergence
Experimental: as §2, §3, §4

lambsquarters [12] = experiment: Test E lambsquarters; assay type: in vivo, Chenopodium album; conditions: Postemergence
Experimental: as §2, §3, §4

scentless chamomile = experiment: Test E scentless chamomile; assay type: in vivo, Matricaria inodora; conditions: Postemergence
Experimental: as §2, §3, §4

sunflower = experiment: Test E sunflower; assay type: in vivo, Helianthus annuus; conditions: Preemergence
downy brome = experiment: Test E downy brome; assay type: in vivo, Bromus tectorum; conditions: Postemergence; for Plant response rating, Downy brome: 0 to 100 scale
Experimental: as §2, §3, §4

[13] = Rate 250 g/ha, 0 to 100 scale (0 no effect, 100 complete control)
[14] = Rate 62 g/ha, 0 to 100 scale, 0 no effect, 100 complete control
[15] = Rate 125 g/ha, 0 to 100 scale (0 no effect, 100 complete control)

C=CCn1c(=O)on(C(=O)N(c2ccccc2)C(C)C)c1=O [Compound 93]
40: Plant response rating, Blackgrass (blackgrass; [13]) | Plant response rating, Wild buckwheat (wild buckwheat [10]; Rate 250 g/ha, 0 to 100 scale)
80: Plant response rating, Spring Wheat (spring wheat; Rate 250 g/ha, 0 to 100 scale)
100: Plant response rating, Redroot pigweed (redroot pigweed; [14]) | Plant response rating, Redroot pigweed (redroot pigweed; [15]) | Plant response rating, Galium (galium [3]; Rate 250 g/ha, 0 to 100 scale) | Plant response rating, Lambsquarters (lambsquarters [5]; [14]) | Plant response rating, Lambsquarters (lambsquarters [5]; [15]) | Plant response rating, Lambsquarters (lambsquarters [5]; Rate 250 g/ha, 0 to 100 scale) | Plant response rating, Windgrass (windgrass; [14]) | Plant response rating, Windgrass (windgrass; [15])
65: Plant response rating, Annual bluegras (annual bluegrass [4]; Rate 250 g/ha, 0 to 100 scale)
5: Plant response rating, Sunflower (sunflower; [15])
0: Plant response rating, Rape (rape; Rate 62 g/ha, 0 to 100 scale) | Plant response rating, Rape (rape; Rate 125 g/ha, 0 to 100 scale) | Plant response rating, Rape (rape; [13]) | Plant response rating, Jointed goatgra (jointed goatgrass; Rate 62 g/ha, 0 to 100 scale) | Plant response rating, Jointed goatgra (jointed goatgrass; Rate 125 g/ha, 0 to 100 scale) | Plant response rating, Jointed goatgra (jointed goatgrass; [13]) | Plant response rating, Russian thistle (Russian thistle [1]; [14]) | Plant response rating, Russian thistle (Russian thistle [1]; [15]) | Plant response rating, Russian thistle (Russian thistle [1]; Rate 250 g/ha, 0 to 100 scale) | Plant response rating, Field violet (field violet [2]; [14]) | Plant response rating, Veronica hedera (ivyleaf speedwell; Rate 62 g/ha, 0 to 100 scale) | Plant response rating, Veronica hedera (ivyleaf speedwell; Rate 125 g/ha, 0 to 100 scale) | Plant response rating, Veronica hedera (ivyleaf speedwell; [13]) | Plant response rating, Field violet (field violet [6]; Rate 62 g/ha, 0 to 100 scale) | Plant response rating, Field violet (field violet [6]; Rate 125 g/ha, 0 to 100 scale) | Plant response rating, Field violet (field violet [6]; [13]) | Plant response rating, Russian thistle (Russian thistle [7]; Rate 62 g/ha, 0 to 100 scale) | Plant response rating, Russian thistle (Russian thistle [7]; Rate 125 g/ha, 0 to 100 scale) | Plant response rating, Russian thistle (Russian thistle [7]; [13]) | Plant response rating, Spring Barley (spring barley; Rate 62 g/ha, 0 to 100 scale) | Plant response rating, Spring Barley (spring barley; Rate 125 g/ha, 0 to 100 scale) | Plant response rating, Spring Barley (spring barley; [13]) | Plant response rating, Galium (galium [9]; Rate 62 g/ha, 0 to 100 scale) | Plant response rating, Galium (galium [9]; Rate 125 g/ha, 0 to 100 scale) | Plant response rating, Galium (galium [9]; [13]) | Plant response rating, I. Ryegrass (Italian ryegrass; Rate 62 g/ha, 0 to 100 scale) | Plant response rating, I. Ryegrass (Italian ryegrass; Rate 125 g/ha, 0 to 100 scale) | Plant response rating, I. Ryegrass (Italian ryegrass; [13]) | Plant response rating, Deadnettle (deadnettle; Rate 62 g/ha, 0 to 100 scale) | Plant response rating, Deadnettle (deadnettle; Rate 125 g/ha, 0 to 100 scale) | Plant response rating, Deadnettle (deadnettle; [13]) | Plant response rating, Wild buckwheat (wild buckwheat [11]; Rate 62 g/ha, 0 to 100 scale) | Plant response rating, Wild buckwheat (wild buckwheat [11]; Rate 125 g/ha, 0 to 100 scale) | Plant response rating, Wild buckwheat (wild buckwheat [11]; [13]) | Plant response rating, Lambsquarters (lambsquarters [12]; Rate 62 g/ha, 0 to 100 scale) | Plant response rating, Lambsquarters (lambsquarters [12]; Rate 125 g/ha, 0 to 100 scale) | Plant response rating, Lambsquarters (lambsquarters [12]; [13]) | Plant response rating, Scentless chamo (scentless chamomile; Rate 62 g/ha, 0 to 100 scale) | Plant response rating, Scentless chamo (scentless chamomile; Rate 125 g/ha, 0 to 100 scale) | Plant response rating, Scentless chamo (scentless chamomile; [13]) | Plant response rating, Downy brome (downy brome; Rate 62 g/ha) | Plant response rating, Downy brome (downy brome; Rate 125 g/ha) | Plant response rating, Downy brortie (downy brome; [13])
20: Plant response rating, Annual bluegras (annual bluegrass [8]; Rate 62 g/ha, 0 to 100 scale) | Plant response rating, Annual bluegras (annual bluegrass [8]; Rate 125 g/ha, 0 to 100 scale) | Plant response rating, Sunflower (sunflower; Rate 250 g/ha, 0 to 100 scale)
30: Plant response rating, Blackgrass (blackgrass; Rate 125 g/ha, 0 to 100 scale) | Plant response rating, Field violet (field violet [2]; Rate 250 g/ha, 0 to 100 scale) | Plant response rating, Spring Wheat (spring wheat; [14]) | Plant response rating, Wild buckwheat (wild buckwheat [10]; [14]) | Plant response rating, Wild buckwheat (wild buckwheat [10]; [15])
15: Plant response rating, Galium (galium [3]; [15])
90: Plant response rating, Redroot pigweed (redroot pigweed; Rate 250 g/ha, 0 to 100 scale)
10: Plant response rating, Blackgrass (blackgrass; Rate 62 g/ha, 0 to 100 scale) | Plant response rating, Field violet (field violet [2]; [15]) | Plant response rating, Galium (galium [3]; [14]) | Plant response rating, Annual bluegras (annual bluegrass [4]; [14]) | Plant response rating, Sunflower (sunflower; [14])
50: Plant response rating, Annual bluegras (annual bluegrass [4]; [15]) | Plant response rating, Annual bluegras (annual bluegrass [8]; [13]) | Plant response rating, Spring Wheat (spring wheat; [15])
